Experimental data reported in patent US20100256104A1, “NOVEL AMIDE COMPOUNDS” (ASTRAZENECA R&D, priority 2009, published 2010).

Each compound was assayed against T1, recombinant human GR (Homo sapiens, UniProt P04150) (assay: Human Glucocorticoid Receptor (GR) Assay, fluorescence polarization competition with GS Red tracer). Settings: 2 hours at room temperature, 100% control 10 μM Dexamethasone, XLfit model 205, read-out: Inhibition of GR binding, IC50.
T1 construct: purchased Panvera/Invitrogen P2812 (kit P2893)
T1 sequence (P04150 1-777): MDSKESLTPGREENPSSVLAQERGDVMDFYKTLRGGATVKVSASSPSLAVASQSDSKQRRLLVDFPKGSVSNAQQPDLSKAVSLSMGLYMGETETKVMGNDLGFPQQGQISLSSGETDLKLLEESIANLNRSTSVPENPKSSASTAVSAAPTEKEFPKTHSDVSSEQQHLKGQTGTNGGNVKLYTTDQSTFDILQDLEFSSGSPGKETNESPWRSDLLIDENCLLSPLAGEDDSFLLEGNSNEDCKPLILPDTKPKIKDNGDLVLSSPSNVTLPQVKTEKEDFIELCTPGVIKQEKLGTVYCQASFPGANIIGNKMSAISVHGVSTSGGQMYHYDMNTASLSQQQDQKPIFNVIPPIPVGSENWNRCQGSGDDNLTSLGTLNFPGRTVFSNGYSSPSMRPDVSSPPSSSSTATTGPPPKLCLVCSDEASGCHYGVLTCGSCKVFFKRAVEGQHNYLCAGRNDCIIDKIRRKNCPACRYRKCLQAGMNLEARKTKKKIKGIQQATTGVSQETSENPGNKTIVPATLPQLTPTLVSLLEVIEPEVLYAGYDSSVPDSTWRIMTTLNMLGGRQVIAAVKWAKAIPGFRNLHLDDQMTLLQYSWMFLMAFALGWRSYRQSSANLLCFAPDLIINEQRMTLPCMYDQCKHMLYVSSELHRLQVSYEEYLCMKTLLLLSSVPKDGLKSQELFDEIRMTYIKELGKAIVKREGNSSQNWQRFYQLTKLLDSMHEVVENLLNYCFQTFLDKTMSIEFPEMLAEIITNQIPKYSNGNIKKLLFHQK
In short: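 Fluorescence polarization competition: recombinant human GR with GS Red tracer, stabilizing peptide and DTT in potassium phosphate/sodium molybdate/EDTA buffer. 2 h in dark at room temperature, read at ex 530/em 590 nm. Controls: DMSO (0%) and 10 μM dexamethasone (100%).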

Compound | IC50 [nM]
CCC(=O)O[C@]1(C(=O)SCF)CC[C@H]2[C@@H]3CCC4=Cc5c(cnn5-c5cccc(C(=O)N6CCC[C@@H]6C(N)=O)c5)C[C@]4(C)[C@H]3[C@@H](O)C[C@@]21C [Example 13, (1R,3aS,3bS,10aR,10bS,11S,12aS)-7-(3-{[(2R)-2-Carbamoylpyrrolidin-1-yl]carbonyl}phenyl)-1-{[(fluoromethyl)sulfanyl]carbonyl}-11-hydroxy-10a,12a-dimethyl-1,2,3,3a,3b,4,5,7,10,10a,10b,11,12,12a-tetradecahydrocyclopenta[5,6]naphtho[1,2-f]indazol-1-yl propanoate] | 2.5
COCCNC(=O)c1cccc(-n2ncc3c2C=C2CC[C@@H]4[C@H]([C@@H](O)C[C@@]5(C)[C@H]4CC[C@]5(OC(=O)COC)C(=O)SCF)[C@@]2(C)C3)c1 [Example 3, (1R,3aS,3bS,10aR,10bS,11S,12aS)-1-{[(Fluoromethyl)sulfanyl]carbonyl}-11-hydroxy-7-{3-[(2-methoxyethyl)carbamoyl]phenyl}-10a,12a-dimethyl-1,2,3,3a,3b,4,5,7,10,10a,10b,11,12,12a-tetradecahydrocyclopenta[5,6]naphtho[1,2-f]indazol-1-yl methoxyacetate] | 1.6
CCC(=O)O[C@]1(C(=O)SCC#N)CC[C@H]2[C@@H]3CCC4=Cc5c(cnn5-c5cccc(C(=O)NCCOC)c5)C[C@]4(C)[C@H]3[C@@H](O)C[C@@]21C [Example 1, (1R,3aS,3bS,10aR,10bS,11S,12aS)-1-{[(Cyanomethyl)sulfanyl]carbonyl}-11-hydroxy-7-{3-[(2-methoxyethyl)carbamoyl]phenyl}-10a,12a-dimethyl-1,2,3,3a,3b,4,5,7,10,10a,10b,11,12,12a-tetradecahydrocyclopenta[5,6]naphtho[1,2-f]indazol-1-yl propanoate] | 1
C[C@]12Cc3cnn(-c4cccc(C(=O)N5CCC[C@@H]5C(N)=O)c4)c3C=C1CC[C@H]1[C@@H]3CC[C@](OC(=O)C4CC4)(C(=O)SCF)[C@@]3(C)C[C@H](O)[C@@]12F [Example 55, (1R,3aS,3bS,10aS, 10bR,11S,12aS)-7-(3-{[(2R)-2-carbamoyl-pyrrolidin-1-yl]carbonyl}phenyl)-10b-fluoro-1-{[(fluoromethyl)sulfanyl]carbonyl}-11-hydroxy-10a,12a-dimethyl-1,2,3,3a,3b,4,5,7,10, 10a,10b,11,12,12a-tetradecahydrocyclo-penta[5,6]naphtho [1,2-f]indazol-1-yl cyclopropanecarboxylate] | 3.5
CCC(=O)O[C@]1(C(=O)SCF)CC[C@H]2[C@@H]3C[C@H](C)C4=Cc5c(cnn5-c5cccc(C(=O)N[C@@H](C)C(N)=O)c5)C[C@]4(C)[C@H]3[C@@H](O)C[C@@]21C [Example 23, (1R,3aS,3bS,5S, 10aR,10bS,11S,12aS)-7-(3-{[(1S)-2-amino-1-methyl-2-oxoethyl]carbamoyl}phenyl)-1-{[(fluoromethyl)sulfanyl]carbonyl}-11-hydroxy-5,10a,12a-trimethyl-1,2,3,3a,3b,4,5,7,10, 10a,10b,11,12,12a-tetradecahydrocyclo-penta[5,6]naphtho [1,2-f]indazol-1-yl propanoate] | 4
COCC(=O)O[C@]1(C(=O)SCC#N)CC[C@H]2[C@@H]3CCC4=Cc5c(cnn5-c5cccc(C(=O)N6CCC[C@@H]6C(N)=O)c5)C[C@]4(C)[C@@]3(F)[C@@H](O)C[C@@]21C [Example 57, (1R,3aS,3bS,10aS, 10bR,11S,12aS)-7-(3-{[(2R)-2-carbamoyl-pyrrolidin-1-yl]carbonyl}phenyl)-1-{[(cyanomethyl)sulfanyl]carbonyl}-10b-fluoro-11-hydroxy-10a,12a-dimethyl-1,2,3,3a,3b,4,5,7,10, 10a,10b,11,12,12a-tetradecahydrocyclo-penta[5,6]naphtho [1,2-f]indazol-1-yl methoxyacetate] | 10
CCC(=O)O[C@]1(C(=O)SCF)CC[C@H]2[C@@H]3CCC4=Cc5c(cnn5-c5cccc(C(=O)NCC(=O)NC)c5)C[C@]4(C)[C@@]3(F)[C@@H](O)C[C@@]21C [Example 36, (1R,3aS,3bS,10aS, 10bR,11S,12aS)-10b-fluoro-1-{[(fluoromethyl)sulfanyl]carbonyl}-11-hydroxy-10a,12a-dimethyl-7-(3-{[2-(methylamino)-2-oxoethyl]carbamoyl}phenyl)-1,2,3,3a,3b,4,5,7,10,10a, 10b,11,12,12a-tetradecahydrocyclo-penta[5,6]naphtho [1,2-f]indazol-1-yl propanoate] | 0.84
CCC(=O)O[C@]1(C(=O)SCF)CC[C@H]2[C@@H]3CCC4=Cc5c(cnn5-c5cccc(C(=O)N(C)CC(N)=O)c5)C[C@]4(C)[C@@]3(F)[C@@H](O)C[C@@]21C [Example 34, (1R,3aS,3bS,10aS, 10bR,11S,12aS)-7-{3-[(2-amino-2-oxoethyl)(methyl)carbamoyl]phenyl}-10b-fluoro-1-{[(fluoromethyl)sulfanyl]carbonyl}-11-hydroxy-10a,12a-dimethyl-1,2,3,3a,3b,4,5,7,10, 10a,10b,11,12,12a-tetradecahydrocyclo-penta[5,6]naphtho [1,2-f]indazol-1-yl propanoate] | 3.8
COCC(=O)O[C@]1(C(=O)SCF)CC[C@H]2[C@@H]3CCC4=Cc5c(cnn5-c5cccc(C(=O)N6CCC[C@@H]6C(N)=O)c5)C[C@]4(C)[C@@]3(F)[C@@H](O)C[C@@]21C [Example 15, (1R,3aS,3bS,10aS,10bR,11S,12aS)-7-(3-{[(2R)-2-Carbamoylpyrrolidin-1-yl]carbonyl}phenyl)-10b-fluoro-1-{[(fluoromethyl)sulfanyl]carbonyl}-11-hydroxy-10a,12a-dimethyl-1,2,3,3a,3b,4,5,7,10,10a,10b,11,12,12a-tetradecahydrocyclopenta[5,6]naphtho[1,2-f]indazol-1-yl methoxyacetate] | 4.3
COCC(=O)O[C@]1(C(=O)SCF)CC[C@H]2[C@@H]3CCC4=Cc5c(cnn5-c5cccc(C(=O)NCC(N)=O)c5)C[C@]4(C)[C@@]3(F)[C@@H](O)C[C@@]21C [Example 17, (1R,3aS,3bS,10aS,10bR,11S, 12aS)-7-{3-[(2-amino-2-oxoethyl)carbamoyl]-phenyl}-10b-fluoro-1-{[(fluoromethyl)sulfanyl]carbonyl}-11-hydroxy-10a,12a-dimethyl-1,2,3,3a,3b,4,5,7,10,10a,10b, 11,12,12a-tetradecahydro-cyclopenta[5,6]naphtho[1,2-f] indazol-1-yl methoxyacetate] | 3
C[C@]12Cc3cnn(-c4cccc(C(=O)N5CCC[C@@H]5C(N)=O)c4)c3C=C1CC[C@@H]1[C@@H]2[C@@H](O)C[C@@]2(C)[C@H]1CC[C@]2(OC(=O)c1cocn1)C(=O)SCC#N [Example 49, (1R,3aS,3bS,10aR, 10bS,11S,12aS)-7-(3-{[(2R)-2-carbamoyl-pyrrolidin-1-yl]carbonyl}phenyl)-1-{[(cyanomethyl)sulfanyl]carbonyl}-11-hydroxy-10a,12a-dimethyl-1,2,3,3a,3b,4,5,7,10, 10a,10b,11,12,12a-tetradecahydrocyclo-penta[5,6]naphtho [1,2-f]indazol-1-yl 1,3-oxazole-4-carboxylate] | 12
CCC(=O)O[C@]1(C(=O)SCF)CC[C@H]2[C@@H]3CCC4=Cc5c(cnn5-c5cccc(C(=O)NCC(N)=O)c5)C[C@]4(C)[C@H]3[C@@H](O)C[C@@]21C [Example 18, (1R,3aS,3bS,10aR,10bS,11S, 12aS)-7-{3-[(2-amino-2-oxoethyl)carbamoyl]phenyl}-1-{[(fluoromethyl)sulfanyl]carbonyl}-11-hydroxy-10a, 12a-dimethyl-1,2,3,3a,3b,4,5,7,10,10a,10b,11,12,12a-tetradecahydrocyclopenta[5,6] naphtho[1,2-f]indazol-1-yl propanoate] | 1.4
COCCNC(=O)c1cccc(-n2ncc3c2C=C2CC[C@@H]4[C@H]([C@@H](O)C[C@@]5(C)[C@H]4CC[C@]5(OC(=O)C4CC4)C(=O)SCF)[C@@]2(C)C3)c1 [Example 5, (1R,3aS,3bS,10aR,10bS,11S,12aS)-1-{[(Fluoromethyl)sulfanyl]carbonyl}-11-hydroxy-7-{3-[(2-methoxyethyl)carbamoyl]phenyl}-10a,12a-dimethyl-1,2,3,3a,3b,4,5,7,10,10a,10b,11,12,12a-tetradecahydrocyclopenta[5,6]naphtho[1,2-f]indazol-1-yl cyclopropanecarboxylate] | 0.98
